Structures are written as SMILES.

This is an account of results in publication PMC9501899 (Journal of the American Chemical Society, 2022).

In data set [1] the test system is pRab10. Nature of the data set: Rab10 dephosphorylation in R1441C LRRK2 MEFs. The data set is classed as cell-based. The settings on record: Mus musculus, 4 h, read-out: EC50s (pRab10). The source says: Primary MEFs were generated as described in a previous study.[80] Briefly, the uterine horn was collected from adult female mice at day E12.5 and transferred to a 10 cm tissue culture dish containing cold PBS. Two forceps were used to tear the yolk sacs to isolate each embryo. Forceps were cleaned thoroughly with 70% ethanol between each embryo isolation. The embryos were culled, and a tissue piece was collected in a polymerase chain reaction (PCR) tube for genotyping. The red tissue of the embryo was removed, and the remainder was minced with a scalpel blade and incubated with a 7.5 mL trypsin–ethylenediaminetetraacetic acid (EDTA) solution for 10 min in a 37 °C, 5% CO2 tissue culture incubator. The dish was removed from the incubator and checked under a light microscope for single cells. Complete media (7.5 mL) was added to the trypsinized cells, and the cell suspension was transferred to a 15 mL Falcon tube and centrifuged at 1200 rpm for 5 min at room temperature. […]
Culturing and passaging of adherent cell lines were carried out using an aseptic technique in CL1 or CL2 (for PBMC isolation) biological safety cabinets. […] The cell pellet was discarded, and the supernatant was collected for analysis by quantitative immunoblotting. […] Protein concentrations of cell lysates were determined using the Bradford assay. […]

Data set [2] concerns pRab10. In words: cells. The format is cell-based, human. The settings on record: for EC50: Homo sapiens, PBMC, PBMCs, read-out: EC50s (pRab10). From the text: The relative LRRK2 protein and pRab10 levels were obtained by quantifying the ratios of total LRRK2/GAPDH or Rab10-pThr73/total Rab10, respectively, and the ratios were normalized to the DMSO-treated samples. The relative LRRK2 and pRab10 protein levels were plotted against the compound concentration and fitted against “nonlinear regression, one site-fit log IC50” in GraphPad to obtain the DC50 and EC50 values. Data points are presented as mean ± standard error of the mean (SEM) from three biological independent replicates. […] The relative LRRK2 protein and pRab10 levels were obtained by quantifying the ratios of total LRRK2/ GAPDH or Rab10-pThr73/total Rab10, respectively, and the ratios were normalized to the DMSO-treated samples. The relative LRRK2 and pRab10 protein levels were plotted against the treatment time and were fitted against “nonlinear regression, one-phase decay” in GraphPad to obtain the half-life (T1/2) values. Data points are presented as mean ± SEM from three biological independent replicates. […] The relative LRRK2 levels were obtained by quantifying the ratios of total LRRK2/tubulin and normalized to the DMSO-treated samples. The relative LRRK2 levels were plotted against the compound concentration and fitted against “nonlinear regression, one site-fit log IC50” in GraphPad to obtain the DC50 values.
PBMC cells were separated from human blood from healthy volunteer donors following the existing protocol[82] and pelleted by centrifugation at 1000g for 2 min. The supernatant was discarded, and the PBMC pellet was resuspended in PBS containing 2% FBS for washing. The suspension was centrifuged at 1000g for 2 min again, and the PBMC pellet was resuspended in Roswell Park Memorial Institute (RPMI)-1640 (Gibco) media supplemented with 10% FBS. The cells were then seeded into six-well plates and treated with testing compounds at indicated concentrations and time periods. After treatment, the cells were collected into a 2 mL Eppendorf tube and centrifuged at 500g for 2 min to pellet the cells, the supernatant was discarded, and the pellet was resuspended in 1 mL PBS and centrifuged at 500g for 2 min again. The PBMC pellet was lysed with 60 μL of lysis buffer containing 50 mM tris–HCl, pH 7.5, 1% (v/v) Triton X-100, 1 mM ethylene glycol-bis(β-aminoethyl ether)-N,N,N′,N′-tetraacetic acid (EGTA), 1 mM sodium orthovanadate, 50 mM NaF, 0.1% (v/v) 2-mercaptoethanol, 10 mM 2-glycerophosphate, 5 mM sodium pyrophosphate, 0.1 μg/mL microcystin-LR (Enzo Life Sciences), 270 mM sucrose, and 0.5 mM diisopropyl fluorophosphate (DIFP) (Sigma-Aldrich, Cat# D0879) in addition to a complete EDTA-free protease inhibitor cocktail (Sigma-Aldrich Cat # 11836170001). DIFP is highly toxic and must be prepared in a fume hood to a stock solution of 0.5 M in isopropanol. The lysed cells were then centrifuged at 1500g for 15 min at 0 °C. The supernatants were collected for analysis by quantitative immunoblotting. For long-term storage, the supernatant was flash-frozen and stored at −80 °C. Protein concentrations of cell lysates were determined using the Pierce BCA Protein Assay Kit (Thermo Fisher).
Cell lysates containing a quarter of a volume of 4× NuPAGE LDS sample buffer (NP0007) supplemented with 5% β-mercaptoethanol were heated at 95 °C for 5 min. […]

Take `CNc1nc(Nc2ccc(C(=O)N3CCN(C[C@H]4CC[C@H](CSC(C)(C)[C@H](NC(=O)C5(F)CC5)C(=O)N5C[C@H](O)CC5C(=O)NCc5ccc(-c6scnc6C)cc5)CC4)CC3)cc2OC)ncc1Cl` (stereo partly drawn) [XL01126, (2S,4R)-1-((R)-3-((((1R,4R)-4-((4-(4-((5-Chloro-4-(methylamino)pyrimidin-2-yl)amino)-3-methoxybenzoyl)piperazin-1-yl)methyl)cyclohexyl)methyl)thio)-2-(1-fluorocyclopropane-1-carboxamido)-3-methylbutanoyl)-4-hydroxy-N-(4-(4-methylthiazol-5-yl)benzyl)pyrrolidine-2-carboxamide]: the EC50 in the data set with pRab10 [1] amounted to 30 nM; with pRab10 [2] (4 h), 69 nM; in the data set on pRab10 [2] (24 h), 20 nM. Further, the “pRab10 T1/2” value with pRab10 [2] (human, pbmc, 300 nM) was 0.38 h.
For the compound `CNc1nc(Nc2ccc(C(=O)N3CCN(C[C@H]4CC[C@H](CSC(C)(C)[C@H](NC(=O)C5(F)CC5)C(=O)N5C[C@@H](O)C[C@H]5C(=O)NCc5ccc(-c6scnc6C)cc5)CC4)CC3)cc2OC)ncc1Cl` [cis-XL01126, (2S,4S)-1-((R)-3-((((1R,4R)-4-((4-(4-((5-Chloro-4-(methylamino)pyrimidin-2-yl)amino)-3-methoxybenzoyl)piperazin-1-yl)methyl)cyclohexyl)methyl)thio)-2-(1-fluorocyclopropane-1-carboxamido)-3-methylbutanoyl)-4-hydroxy-N-(4-(4-methylthiazol-5-yl)benzyl)pyrrolidine-2-carboxamide], the EC50 in the data set with pRab10 [1] was 158 nM; in the data set on pRab10 [2] (4 h), approximately 3000 nM; with pRab10 [2] (24 h) it was 705 nM.
